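Protocol summary: plate cells (96-well), add compound at 5 concentrations, incubate 48 h, interpolate endpoints linearly. TGI: concentration producing complete growth inhibition.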
Tests used:
Assay in all cases: NCI anticancer screen, dose series, 48 h
RPMI-8226 leukemia = tested on: RPMI-8226 leukemia
HCC-2998 colon = tested on: HCC-2998 colon
CAKI-1 renal = tested on: CAKI-1 renal
LOX IMVI melanoma = tested on: LOX IMVI melanoma
HOP-92 NSCLC = tested on: HOP-92 NSCLC
MOLT-4 leukemia = tested on: MOLT-4 leukemia
CCRF-CEM leukemia = tested on: CCRF-CEM leukemia
COLO 205 colon = tested on: COLO 205 colon
SF-268 CNS = tested on: SF-268 CNS
SNB-75 CNS = tested on: SNB-75 CNS

| SMILES | TGI (RPMI-8226 leukemia) [µM] | TGI (HCC-2998 colon) [µM] | TGI (CAKI-1 renal) [µM] | TGI (LOX IMVI melanoma) [µM] | TGI (HOP-92 NSCLC) [µM] | TGI (MOLT-4 leukemia) [µM] | TGI (CCRF-CEM leukemia) [µM] | TGI (COLO 205 colon) [µM] | TGI (SF-268 CNS) [µM] | TGI (SNB-75 CNS) [µM] |
| --- | --- | --- | --- | --- | --- | --- | --- | --- | --- | --- |
| CCN(CC)C(=O)Cn1c(C)cc2ccccc21 | > 100 | > 100 | > 100 | > 100 | > 100 | > 100 | > 100 | > 100 | > 100 | > 100 |
| CSc1ncnc2c1ncn2C1CC(Oc2ccc(C)cc2)C(COc2ccc(C)cc2)O1 (configuration not stated) | > 100 | > 100 | > 100 | > 100 | > 100 | > 100 | > 100 | > 100 | > 100 | > 100 |
| COc1ccc2ccccc2c1/C=C/C(=O)c1ccccc1 | 4.07 | 3.07 | 15 | 10.9 | 6.97 | 6.78 | 4.17 | 9.76 | 17.9 | 4.01 |
| O=C(NNC(=S)Nc1cccc(Cl)c1)c1cc(-c2ccccc2)nc2ccccc12 | 75.3 | 28.2 | 43.1 |  | 30.2 | 74.6 | 32.2 | 29.2 | 35.4 | 66.5 |
| CC(C)(C)OC(=O)NC(Cc1ccc(OCc2ccccc2)cn1)C(=O)N1CCCCC1 (configuration not stated) | 52.7 | > 100 | > 100 | 71 | > 100 | 47.7 | > 100 | 33.3 | > 100 | 70.3 |
| c1ccc2c(c1)ccn2CCc1c[nH]c2ccccc12 | > 10 | > 10 | > 10 | > 10 | > 10 | > 10 | > 10 | > 10 | > 10 | > 10 |
| Cc1ccc(SCC(CF)OC(C)n2cnc3c(=O)[nH]c(N)nc32)cc1 (configuration not stated) | > 100 | > 100 | > 100 | > 100 | > 100 | > 100 | > 100 | > 100 | > 100 | > 100 |
| Oc1c(CN2CCOCC2)ccc2cccnc12 | > 10 | > 10 | > 10 | > 10 | > 10 | > 10 | 7.56 | > 10 | > 10 | > 10 |
| Cc1ccc2c(c1)C(C(=O)N[C@@H]1C(=O)N3[C@@H]1SC(C)(C)[C@@H]3C(=O)O)OCCC2 (some centres not stated) | > 100 | > 100 | > 100 | > 100 | > 100 | > 100 | > 100 | > 100 | > 100 | > 100 |
| CCN(CC)CCNc1nc2ccc([N+](=O)[O-])cc2[n+]([O-])n1 | 44.9 | 44.8 | > 100 |  | > 100 | 50.6 | 85.3 | 18.6 | > 100 | > 100 |
| N=C(N)c1ccc(C(NC(=O)CNS(=O)(=O)c2ccc3ccccc3c2)P(=O)(Oc2ccccc2)Oc2ccccc2)cc1 (configuration not stated) | > 100 | > 100 | > 100 | > 100 | > 100 | 92.4 | > 100 | > 100 | > 100 | > 100 |
| O=c1[nH]nc(-c2ccccc2)c2[nH]c3c4ccccc4ccc3c12 | 3.57 | 4.81 |  |  | > 100 | > 100 | > 100 | > 100 | > 100 | > 100 |
| C[C@]12CCC(=O)O[C@H]1CCCCO2 |  | > 100 | > 100 | > 100 | 71.1 | > 100 | > 100 | > 100 | > 100 | > 100 |
| CC(=O)OCC12C(=O)C[C@@H](C)C3(CC(c4ccoc4)OC3=O)C1CCC(OC(C)=O)C21CO1 (some centres not stated) | > 100 | > 100 | > 100 | > 100 | > 100 | > 100 |  | > 100 | > 100 | > 100 |
| O=C1C(CN2CCCCC2)CCC1CN1CCCCC1 (configuration not stated) | 28.4 | > 62.5 | 25 | 31.7 | 54.6 | 3.79 | 3.97 | 40.7 | > 74.8 | > 75.6 |
| O=C1CCC(c2ccc(Cl)cc2)=NN1c1nsc2ccccc12 | 42.6 | 44.8 |  |  | 71.2 | 53.2 | 80 | > 100 | > 100 | 56 |
| CON(C)C(=O)CNC(=O)OCC1c2ccccc2-c2ccccc21 | 91.7 | > 100 |  | 53.1 | > 100 | > 100 | > 100 | > 100 | > 100 | > 100 |
| CCOC(=O)c1nc2ccc(C(F)(F)F)cc2nc1NCc1cc(OC)c(OC)c(OC)c1 | 48 | > 100 | > 100 | > 100 | > 100 | > 100 |  | 73.4 | > 100 | 90.6 |
| CC(=O)OC(/C=C/c1ccccc1)=C(OC(C)C)/C1=C(\c2ccccc2)SCCCSC1=O | > 100 | > 100 | > 100 | > 100 | > 100 | > 100 | > 100 | > 100 | > 100 | > 100 |
| CC1OC(OC2C(O[C@H]3CC[C@@]4(C)C(=CC[C@H]5[C@@H]6C[C@@H]7O[C@]8(CC[C@@H](CO)CO8)[C@@H](C)[C@@H]7[C@@]6(C)CC[C@@H]54)C3)OC(CO)C(O)C2OC2OC(CO)C(O)C(O)C2O)C(O)C(O)C1O (some centres not stated) | 3.92 | 2.97 | 3.55 | 3.39 | 3.32 |  |  | 3.42 | 3.54 | 3.06 |
| COc1cc(CNCc2cc(OC)c(OC)c(OC)c2)cc(OC)c1OC | > 10 | > 10 | > 10 | > 10 | > 10 | > 10 | 5.86 | > 10 | > 10 | > 10 |
| CCOC(=O)N/N=C(/N)c1cccc([N+](=O)[O-])c1 |  | > 100 | > 100 | > 100 | > 100 | > 100 | > 100 | > 100 | > 100 | > 100 |

Reference: PubChem BioAssay (NCI)
